Data from ChEMBL document CHEMBL1909622, “Identification of a novel RAMP-independent CGRP receptor antagonist” (Bioorg Med Chem Lett, 2011).

What was measured:
[1] = test system: CGRP receptor (CALCRL/RAMP1) (Homo sapiens); assay: Ratio Ki for CGRP receptor in human SK-N-MC cells in the absence of MgCl2 to Ki for CGRP receptor in human SK-N-MC cells in the presence of MgCl2
[2] = Clearance in dog at 0.5 mg/kg, iv and 1 mg/kg, po; format: ADME, organism-based, Canis lupus familiaris; conditions: in vivo
[3] = Half life in rat at 2 mg/kg, iv; format: ADME, organism-based; parameters: dose 2 mg/kg, route intravenous; conditions: in vivo
[4] = Volume of distribution at steady state in rat at 2 mg/kg, iv and 10 mg/kg, po; format: ADME, organism-based; conditions: in vivo, read-out: Vdss
[5] = Oral bioavailability in rat at 10 mg/kg; format: ADME, organism-based; conditions: in vivo
[6] = Half life in dog at 0.5 mg/kg, iv; format: ADME, organism-based, Canis lupus familiaris; parameters: dose 0.5 mg/kg, route intravenous; conditions: in vivo
[7] = Oral bioavailability in dog at 1 mg/kg; format: ADME, organism-based, Canis lupus familiaris; conditions: in vivo
[8] = Volume of distribution at steady state in dog at 0.5 mg/kg, iv and 1 mg/kg, po; format: ADME, organism-based, Canis lupus familiaris; conditions: in vivo, read-out: Vdss
[9] = Clearance in rat at 2 mg/kg, iv and 10 mg/kg, po; format: ADME, organism-based; conditions: in vivo

Row | Ratio Ki [1] | clearance [2] [L/h/kg] | half-life [3] [h] | Vd [4] [L/kg] | bioavailability [5] [%] | half-life [6] [h] | bioavailability [7] [%] | Vd [8] [L/kg] | clearance [9] [L/h/kg] | SMILES
1 | 1 |  |  |  |  |  |  |  |  | CC(C)C[C@H](NC(=O)CNC(=O)[C@H](C)NC(=O)[C@H](CC(C)C)NC(=O)[C@H](CCCNC(=N)N)NC(=O)[C@H](Cc1cnc[nH]1)NC(=O)[C@@H](NC(=O)[C@@H](NC(=O)[C@H](CS)NC(=O)[C@@H](NC(=O)[C@H](C)NC(=O)[C@@H](NC(=O)[C@H](CC(=O)O)NC(=O)[C@H](CS)NC(=O)[C@H](C)N)[C@@H](C)O)[C@@H](C)O)C(C)C)[C@@H](C)O)C(=O)N[C@@H](CC(C)C)C(=O)N[C@@H](CO)C(=O)N[C@@H](CCCNC(=N)N)C(=O)N[C@@H](CO)C(=O)NCC(=O)NCC(=O)N[C@H](C(=O)N[C@H](C(=O)N[C@@H](CCCCN)C(=O)N[C@@H](CC(N)=O)C(=O)N[C@@H](CC(N)=O)C(=O)N[C@@H](Cc1ccccc1)C(=O)N[C@H](C(=O)N1CCC[C@H]1C(=O)N[C@H](C(=O)N[C@@H](CC(N)=O)C(=O)N[C@H](C(=O)NCC(=O)N[C@@H](CO)C(=O)N[C@@H](CCCCN)C(=O)N[C@@H](C)C(=O)N[C@@H](Cc1ccccc1)C(N)=O)C(C)C)[C@@H](C)O)C(C)C)C(C)C)C(C)C
2 |  | 0.306 | 5.4 | 0.4 | 26 | 7.1 | 13 | 3 | 0.066 | O=C(NCc1cc(F)cc(F)c1)c1nc(N2CCCCS2(=O)=O)cc(Br)c1O
